Results reported in US6582734B1, “Antimicrobial composition useful for the treatment of bovine mastitis” (Ecolab Inc., priority 2000, dated 2003).

Experiments:
[1] = test system: E. coli; assay: Effect of various acids on antimicrobial activity of the base solution (no chlorine dioxide), E. coli; assay type: cell-based, Escherichia coli; settings: used alone at 1%
Protocol: (§1) The effect of various acids on the antimicrobial activity of the base solution was measured. No chlorine dioxide was added to the compositions. Acids were added to each sample at a concentration of 1%. Example 4 had 1% heptanoic acid and Comparative Example D had 1% lactic acid. Examples 5 and 6 utilized blends of acids. The antimicrobial activity of each was measured and compared in the following Table III.

[2] = test system: S. aureus; assay: Effect of various acids on antimicrobial activity of the base solution (no chlorine dioxide), S. aureus; assay type: cell-based, Staphylococcus aureus; settings: used alone at 1%
Protocol: as §1

[3] = test system: Escherichia coli (ATCC 11229); assay: Antimicrobial effect of ClO2 compositions with/without heptanoic acid, E. coli; assay type: cell-based; settings: no secondary antimicrobial fatty acid added
Protocol: (§2) This experiment was used to determine what affect the addition of a fatty acid, the secondary antimicrobial agent, had on the effectiveness of the compositions in killing E. Coli and S. Aureus. The secondary fatty acid used was heptanoic acid at a level of 1% in examples 1, 2 and 3. The comparative examples, A, B and C, contained no fatty acid.
(§3) Three compositions were prepared from each base solution. Sodium chlorite was added in amounts that were sufficient to form compositions having 200 ppm, 300 ppm and 400 ppm ClO2. Six compositions were prepared in all.
(§4) The compositions were then tested for the antimicrobial effect against Staphylococcus aureus and Escherichia coli. The inoculum numbers in CFU/mL were 1.1×10^7 (ATCC 6538) and 1.0×10^8 (ATCC 11229). The test temperature was 25° C. and the solution pH was 5.5. The following Table II illustrates the results obtained.

[4] = test system: Staphylococcus aureus (ATCC 6538); assay: Antimicrobial effect of ClO2 compositions with/without heptanoic acid, S. aureus; assay type: cell-based; settings: no secondary antimicrobial fatty acid added
Protocol: as §2, §3, §4

Row | Structure (SMILES) | effect against the microbes (E. coli), in words [1] | effect against the microbes (S. aureus), in words [2] | concentration level of chlorine dioxide that provided an effective antimicrobial kill of E. Coli [3] [ppm] | concentration level of chlorine dioxide that provided an effective antimicrobial kill of S. Aureus [4] [ppm]
1 | CC(O)C(=O)O (stereo not shown) [lactic acid] | does not have much of any effect | does not have much of any effect | – | –
2 | [O][Cl+][O-] [chlorine dioxide] | – | – | 300 | 300
